Test results from ChEMBL document CHEMBL5465560, “Selectivity Literature for EUbOPEN Chemogenomic Library” (2024).
One block for each molecule: values may come before it.

Experiments:
[1] = biological target: T1, Myotonin-protein kinase (Homo sapiens) (UniProt Q09013); details: at 10 µM
T1 sequence (whole entry): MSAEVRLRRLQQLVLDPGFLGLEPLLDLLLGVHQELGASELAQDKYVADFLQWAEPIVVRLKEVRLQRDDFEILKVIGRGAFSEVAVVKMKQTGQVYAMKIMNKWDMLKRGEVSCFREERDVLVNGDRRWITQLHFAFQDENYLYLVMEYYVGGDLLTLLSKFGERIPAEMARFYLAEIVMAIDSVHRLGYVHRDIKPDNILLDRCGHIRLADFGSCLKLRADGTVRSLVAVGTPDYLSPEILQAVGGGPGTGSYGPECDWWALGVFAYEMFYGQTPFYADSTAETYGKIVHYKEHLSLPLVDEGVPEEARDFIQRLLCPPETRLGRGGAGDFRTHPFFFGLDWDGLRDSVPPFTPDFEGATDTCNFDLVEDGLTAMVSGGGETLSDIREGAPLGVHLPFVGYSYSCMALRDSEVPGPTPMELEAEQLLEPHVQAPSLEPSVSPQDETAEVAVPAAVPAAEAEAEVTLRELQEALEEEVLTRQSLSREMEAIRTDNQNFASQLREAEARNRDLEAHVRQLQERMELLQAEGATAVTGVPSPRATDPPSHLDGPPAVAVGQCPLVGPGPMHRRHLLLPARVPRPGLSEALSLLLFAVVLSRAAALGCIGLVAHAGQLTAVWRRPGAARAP

[2] = biological target: Serine/threonine-protein kinase Chk2 (Homo sapiens) (UniProt O96017); assay: Selectivity interaction (Millipore kinase profiler) EUB0000124b CHEK2; details: at 10 µM
[3] = biological target: Fibroblast growth factor receptor 4 (Homo sapiens, UniProt P22455); assay: Selectivity interaction (Kinase panel (Invitrogen)) EUB0000639a FGFR4; details: at 200 nM
[4] = biological target: Mast/stem cell growth factor receptor Kit (Homo sapiens, UniProt P10721); assay: Selectivity interaction (Kinase panel (Invitrogen)) EUB0000639a KIT; details: at 200 nM
[5] = biological target: Serine/threonine-protein kinase mTOR (Homo sapiens, UniProt P42345); assay: Selectivity interaction (Kinase panel (Z-LYTE Assay)) EUB0001632a MTOR; details: at 10 µM
[6] = biological target: Calcium/calmodulin-dependent protein kinase kinase 2 (Homo sapiens) (UniProt Q96RR4); assay: Selectivity interaction (KinomeScan (DiscoverX)) EUB0000229b CAMKK2; details: at 10 µM
[7] = biological target: Myosin light chain kinase, smooth muscle (Homo sapiens, UniProt Q15746); assay: Selectivity interaction (KinomeScan (DiscoverX)) EUB0000618a MYLK; details: at 10 µM
[8] = biological target: T2, Protein kinase C epsilon type (Homo sapiens) (UniProt Q02156); assay: Selectivity interaction (KinomeScan (DiscoverX)) EUB0000607a PRKCE; details: at 10 µM
T2 sequence (whole entry): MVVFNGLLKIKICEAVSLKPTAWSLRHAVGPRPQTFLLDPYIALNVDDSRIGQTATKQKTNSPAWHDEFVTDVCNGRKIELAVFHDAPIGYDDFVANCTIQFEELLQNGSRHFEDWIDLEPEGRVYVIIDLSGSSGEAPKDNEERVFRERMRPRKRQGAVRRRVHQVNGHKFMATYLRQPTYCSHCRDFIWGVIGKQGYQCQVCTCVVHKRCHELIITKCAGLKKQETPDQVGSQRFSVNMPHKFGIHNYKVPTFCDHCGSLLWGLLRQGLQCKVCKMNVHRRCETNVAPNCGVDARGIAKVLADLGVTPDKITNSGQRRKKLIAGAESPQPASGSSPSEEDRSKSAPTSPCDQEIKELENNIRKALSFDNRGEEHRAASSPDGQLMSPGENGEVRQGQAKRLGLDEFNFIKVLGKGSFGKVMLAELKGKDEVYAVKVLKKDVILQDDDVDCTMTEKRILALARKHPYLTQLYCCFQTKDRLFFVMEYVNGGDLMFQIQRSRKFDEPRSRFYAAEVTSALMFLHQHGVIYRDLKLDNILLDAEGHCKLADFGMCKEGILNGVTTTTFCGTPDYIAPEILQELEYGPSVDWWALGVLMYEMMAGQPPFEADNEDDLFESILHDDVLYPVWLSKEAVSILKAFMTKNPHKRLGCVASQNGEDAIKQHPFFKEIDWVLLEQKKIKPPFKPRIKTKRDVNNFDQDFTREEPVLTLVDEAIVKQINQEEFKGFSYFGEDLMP

[9] = biological target: T3, cGMP-dependent protein kinase 2 (Homo sapiens) (UniProt Q13237); assay: Selectivity interaction (KinomeScan (DiscoverX)) EUB0000607a PRKG2; details: at 10 µM
T3 sequence (whole entry): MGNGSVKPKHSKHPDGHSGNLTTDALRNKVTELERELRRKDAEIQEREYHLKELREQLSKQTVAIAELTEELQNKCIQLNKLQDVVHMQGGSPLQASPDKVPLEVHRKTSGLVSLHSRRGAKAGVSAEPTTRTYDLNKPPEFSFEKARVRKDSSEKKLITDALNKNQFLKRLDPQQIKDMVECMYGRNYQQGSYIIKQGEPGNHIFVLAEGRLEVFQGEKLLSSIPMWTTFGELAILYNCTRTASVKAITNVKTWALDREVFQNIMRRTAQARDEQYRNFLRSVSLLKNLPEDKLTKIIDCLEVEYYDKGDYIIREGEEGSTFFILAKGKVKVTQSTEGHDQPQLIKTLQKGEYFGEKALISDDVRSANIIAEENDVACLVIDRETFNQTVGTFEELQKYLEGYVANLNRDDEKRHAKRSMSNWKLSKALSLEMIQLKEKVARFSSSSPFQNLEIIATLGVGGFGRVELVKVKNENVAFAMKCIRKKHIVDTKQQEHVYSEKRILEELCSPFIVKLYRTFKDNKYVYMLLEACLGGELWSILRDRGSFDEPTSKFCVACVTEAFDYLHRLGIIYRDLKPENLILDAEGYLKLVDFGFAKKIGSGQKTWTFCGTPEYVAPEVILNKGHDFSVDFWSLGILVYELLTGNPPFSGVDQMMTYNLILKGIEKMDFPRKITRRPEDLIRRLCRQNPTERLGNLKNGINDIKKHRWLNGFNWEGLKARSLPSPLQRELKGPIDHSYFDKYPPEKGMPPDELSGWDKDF

[10] = biological target: Ribosomal protein S6 kinase alpha-3 (Homo sapiens, UniProt P51812); assay: Selectivity interaction (Kinase panel (KiNativ target engagement assay in Jurkat cells)) EUB0001635a RPS6KA3; format: cell-based; details: Selectivity number of off-targets 0.0, Selectivity number of targets 233.0, Source Knowledge https://www.sciencedirect.com/science/article/pii/S2451945619300674?via%3Dihub, at 1 µM
[11] = biological target: T3, cGMP-dependent protein kinase 2 (Homo sapiens); assay: Selectivity interaction (KinomeScan (DiscoverX)) EUB0000666a PRKG2; details: at 10 µM

Serine/threonine-protein kinase Chk2 (Homo sapiens), sequence (O96017 whole entry): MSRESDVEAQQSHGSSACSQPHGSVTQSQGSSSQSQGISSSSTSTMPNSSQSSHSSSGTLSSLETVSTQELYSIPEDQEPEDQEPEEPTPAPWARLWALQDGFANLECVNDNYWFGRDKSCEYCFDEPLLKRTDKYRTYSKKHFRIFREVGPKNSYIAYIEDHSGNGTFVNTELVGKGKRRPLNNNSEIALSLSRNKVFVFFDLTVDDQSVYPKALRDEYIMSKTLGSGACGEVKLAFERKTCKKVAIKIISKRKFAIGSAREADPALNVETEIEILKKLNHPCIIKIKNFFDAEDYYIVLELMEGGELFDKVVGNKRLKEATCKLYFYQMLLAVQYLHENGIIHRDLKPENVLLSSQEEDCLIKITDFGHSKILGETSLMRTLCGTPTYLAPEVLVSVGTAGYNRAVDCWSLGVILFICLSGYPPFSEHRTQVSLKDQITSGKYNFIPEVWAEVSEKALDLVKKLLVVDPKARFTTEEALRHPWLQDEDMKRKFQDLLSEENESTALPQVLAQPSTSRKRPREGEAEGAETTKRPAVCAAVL
Calcium/calmodulin-dependent protein kinase kinase 2 (Homo sapiens), sequence (Q96RR4 2-588 limits assumed): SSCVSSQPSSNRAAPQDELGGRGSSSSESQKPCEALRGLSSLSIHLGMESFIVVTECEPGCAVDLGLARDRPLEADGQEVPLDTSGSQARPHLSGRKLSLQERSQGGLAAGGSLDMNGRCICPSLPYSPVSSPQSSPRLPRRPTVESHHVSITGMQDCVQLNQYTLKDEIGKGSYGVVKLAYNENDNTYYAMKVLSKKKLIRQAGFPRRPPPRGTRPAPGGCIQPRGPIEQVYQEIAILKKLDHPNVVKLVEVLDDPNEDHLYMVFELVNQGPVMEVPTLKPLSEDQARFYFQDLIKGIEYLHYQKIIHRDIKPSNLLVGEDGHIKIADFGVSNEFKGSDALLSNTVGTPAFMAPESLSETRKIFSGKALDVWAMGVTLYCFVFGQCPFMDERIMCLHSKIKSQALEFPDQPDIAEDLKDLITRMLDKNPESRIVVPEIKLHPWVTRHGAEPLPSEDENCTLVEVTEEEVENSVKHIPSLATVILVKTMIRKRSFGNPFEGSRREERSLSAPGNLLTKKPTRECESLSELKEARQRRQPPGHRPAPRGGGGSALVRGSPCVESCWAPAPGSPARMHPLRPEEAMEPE
Ribosomal protein S6 kinase alpha-3, sequence (P51812 whole entry): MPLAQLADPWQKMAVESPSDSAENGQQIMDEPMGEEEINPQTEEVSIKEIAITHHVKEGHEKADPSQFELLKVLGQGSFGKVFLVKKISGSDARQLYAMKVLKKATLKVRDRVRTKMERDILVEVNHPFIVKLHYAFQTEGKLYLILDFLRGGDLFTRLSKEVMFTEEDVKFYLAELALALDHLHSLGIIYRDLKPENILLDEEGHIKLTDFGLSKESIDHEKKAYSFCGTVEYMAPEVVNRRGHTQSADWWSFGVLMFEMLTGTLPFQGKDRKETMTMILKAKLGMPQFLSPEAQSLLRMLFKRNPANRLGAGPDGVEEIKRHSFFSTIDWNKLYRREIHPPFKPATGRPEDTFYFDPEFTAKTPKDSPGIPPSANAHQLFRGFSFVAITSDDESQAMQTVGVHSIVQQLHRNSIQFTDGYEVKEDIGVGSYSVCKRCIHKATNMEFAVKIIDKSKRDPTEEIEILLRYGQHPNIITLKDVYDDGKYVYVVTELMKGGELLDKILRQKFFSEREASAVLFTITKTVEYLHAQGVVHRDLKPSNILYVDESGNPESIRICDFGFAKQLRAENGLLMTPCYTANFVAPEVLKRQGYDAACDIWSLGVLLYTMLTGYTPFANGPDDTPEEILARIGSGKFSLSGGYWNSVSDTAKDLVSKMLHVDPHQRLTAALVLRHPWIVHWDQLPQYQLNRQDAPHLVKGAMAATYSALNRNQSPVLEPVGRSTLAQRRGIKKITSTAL
Mast/stem cell growth factor receptor Kit, sequence (P10721 whole entry): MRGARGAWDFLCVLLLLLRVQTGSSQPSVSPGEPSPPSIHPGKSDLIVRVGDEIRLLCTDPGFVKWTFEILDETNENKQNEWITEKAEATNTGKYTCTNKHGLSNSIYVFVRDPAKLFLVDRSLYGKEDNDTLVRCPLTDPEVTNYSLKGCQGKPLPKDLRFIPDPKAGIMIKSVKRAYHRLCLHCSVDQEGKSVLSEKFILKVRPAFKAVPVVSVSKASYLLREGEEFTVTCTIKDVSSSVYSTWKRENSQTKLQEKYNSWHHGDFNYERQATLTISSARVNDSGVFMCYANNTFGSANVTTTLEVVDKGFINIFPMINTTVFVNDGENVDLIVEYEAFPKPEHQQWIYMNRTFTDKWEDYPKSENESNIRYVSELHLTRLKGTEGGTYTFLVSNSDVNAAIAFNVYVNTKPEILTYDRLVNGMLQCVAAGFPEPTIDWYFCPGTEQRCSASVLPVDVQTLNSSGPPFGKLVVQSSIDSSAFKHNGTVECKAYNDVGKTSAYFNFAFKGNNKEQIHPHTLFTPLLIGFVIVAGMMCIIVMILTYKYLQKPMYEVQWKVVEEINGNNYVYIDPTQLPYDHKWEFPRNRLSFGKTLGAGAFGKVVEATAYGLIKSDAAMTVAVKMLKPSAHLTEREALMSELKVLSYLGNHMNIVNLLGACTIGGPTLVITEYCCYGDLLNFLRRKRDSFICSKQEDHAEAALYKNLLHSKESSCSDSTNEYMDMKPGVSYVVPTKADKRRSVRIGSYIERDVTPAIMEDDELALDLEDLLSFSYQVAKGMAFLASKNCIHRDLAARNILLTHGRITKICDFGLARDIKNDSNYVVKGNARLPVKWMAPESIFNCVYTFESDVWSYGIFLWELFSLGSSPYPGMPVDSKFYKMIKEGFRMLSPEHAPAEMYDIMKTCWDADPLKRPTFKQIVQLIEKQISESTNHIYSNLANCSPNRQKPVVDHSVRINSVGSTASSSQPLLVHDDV
Fibroblast growth factor receptor 4, sequence (P22455 22-802 limits assumed): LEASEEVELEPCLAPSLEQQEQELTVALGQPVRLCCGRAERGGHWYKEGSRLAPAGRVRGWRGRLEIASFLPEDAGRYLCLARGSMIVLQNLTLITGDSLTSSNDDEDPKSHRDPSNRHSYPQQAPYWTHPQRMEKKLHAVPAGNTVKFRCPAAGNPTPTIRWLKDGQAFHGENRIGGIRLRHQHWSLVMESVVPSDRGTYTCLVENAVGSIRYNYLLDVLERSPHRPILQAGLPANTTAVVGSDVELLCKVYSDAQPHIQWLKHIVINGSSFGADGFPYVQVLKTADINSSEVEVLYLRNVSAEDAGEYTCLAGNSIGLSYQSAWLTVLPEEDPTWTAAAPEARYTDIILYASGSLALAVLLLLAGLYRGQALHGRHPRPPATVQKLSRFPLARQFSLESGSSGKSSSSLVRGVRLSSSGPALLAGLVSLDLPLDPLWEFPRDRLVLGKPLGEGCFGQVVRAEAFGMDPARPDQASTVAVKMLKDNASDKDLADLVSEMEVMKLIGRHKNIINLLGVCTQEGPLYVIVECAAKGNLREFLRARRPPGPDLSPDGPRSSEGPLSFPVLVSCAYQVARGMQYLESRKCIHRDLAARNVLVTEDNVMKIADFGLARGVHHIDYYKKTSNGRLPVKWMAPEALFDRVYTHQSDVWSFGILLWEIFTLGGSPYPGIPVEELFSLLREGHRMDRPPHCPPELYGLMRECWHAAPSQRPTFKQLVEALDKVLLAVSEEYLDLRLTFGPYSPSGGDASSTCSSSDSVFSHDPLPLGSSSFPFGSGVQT

SMILES: Cc1cc([C@@H](C)Nc2ccccc2C(=O)O)c2nc(N3CCOCC3)cc(=O)n2c1 [AZD-6482]
- % of control [1]: 100%

- % of control [2]: 98%
SMILES: CC(=O)Nc1cccc(-n2c(=O)n(C3CC3)c(=O)c3c(Nc4ccc(I)cc4F)n(C)c(=O)c(C)c32)c1

- % of inhibition [3]: 3.68%
- % of inhibition [4]: 1.04%
SMILES: CC[C@@H]1[C@H](F)C(=O)N[C@@H]1COc1nccc2cc(C(N)=O)c(OC)cc12 [ZIMLOVISERTIB]

- % of control [5]: 7.22%
SMILES: Cn1cc(-n2cnc3c(NCc4nc5cc(Cl)c(Cl)cc5[nH]4)nc(N4CCOCC4)nc32)cn1

SMILES: COc1cc(N(C)c2ccnc3ccc(C(F)(F)F)cc23)cc(OC)c1OC
- % binding [6]: 85%

SMILES: O[C@H]1CC[C@H](Nc2ncc3nc(Nc4c(F)cc(F)cc4F)n([C@H]4CCOC4)c3n2)CC1
- % of control [7]: 94%

SMILES: CNC(=O)Nc1ccc(-c2nc(N3CC4CCC(C3)O4)c3cnn(C4CCC5(CC4)OCCO5)c3n2)cc1
- % of control [8]: 100%
- % of control [9]: 88%

SMILES: C=CC(=O)Nc1ccc(C(=O)Nc2[nH]nc3c2CN(C(=O)N[C@H](CN(C)C)c2ccccc2)C3(C)C)cc1
- % of engagement [10]: 13.1%

SMILES: O=C(NOC[C@H](O)CO)c1ccc(F)c(F)c1Nc1ccc(I)cc1F
- % of control [11]: 86%
